Experimental data taken from patent US20200261497A1, “Iodinated Contract Medium for Use as a Medicament for Thyroid Radioprotection” (priority 2017, published 2020).

Columns and labels:
[1] = system: HT29-NIS cells; experiment: 125I iodide uptake in HT29-NIS cells; assay type: cell-based, human; details: one hour incubation with 125I, Iomeron 100 μL corresponding to 70 mg of iomeprol
Protocol: (§1) FIG. 2: Effect of Iomeron on iodide uptake of established cell lines expressing NIS. HT29-NIS (A) or PCCL3 (B) cells were incubated for one hour with ^125I in the presence of an equal volume of either saline, Iomeron (100 μL corresponding to 70 mg of iomeprol), NaI or perchlorate. Cells were then rapidly washed with saline buffer and lysed. Aliquots of lysates were counted in a y counter. The results are expressed as percentage of uptake in the control condition. The data presented are the mean±SEM of triplicates and are representative of three independent experiments. n.s: non statistically significant.
(§2) The human colorectal cancer cell line HT-29 (HTB-38, ATCC) was transfected with pcDNA3.1-mNIS (murine NIS) (Perron et al., 2001) using the FuGENE 6 reagent (Roche) according to the manufacturer's instructions. Stable clones were selected by addition of 1 mg/mL geneticin (G418) to the medium 3 days after transfection. One clone with high functional expression of NIS was selected (Richard-Fiardo et al., 2012). The rat follicular thyroid cell line PCCL3 was obtained from Dr. A. De La Vieja (Madrid, Spain) and cultured as previously described (Leoni et al., 2011). Measurement of in vitro iodide uptake was performed as previously described (Groot-Wassink et al., 2002).
(§3) We next examined whether iomeprol and its contaminating free iodide could affect iodide uptake in NIS-expressing cell lines. HT29-NIS (a human colorectal carcinoma cell line expressing NIS) (FIG. 2A) or PCCL3 (a rat follicular thyroid cell line) (FIG. 2B) cells were incubated with ^125I in the presence of either saline buffer, Iomeron, NaI, or perchlorate (NaClO4). After one hour, cells were washed and cellular ^125I content was determined.

[2] = system: human salivary glands; experiment: 99mTcO4- scintigraphy of the human salivary glands; assay type: in vivo; details: patient, intravenous injection two weeks before scintigraphy
Protocol: (§4) FIG. 4: Effect of Iomeron on the uptake of ^99m-pertechnetate by the human thyroid and salivary glands. Scintigraphies of a naïve patient (A) or a patient who has been administered with Iomeron two weeks before the scintigraphy. SG: salivary glands; T: thyroid; R: right; L: left.
(§5) A “naïve” patient and a patient who had received an intravenous injection of Iomeron 350 two weeks before scintigraphy were involved. On the day of the scintigraphy, patients were injected intravenously with an activity of 1 MBq/kg and 600 s scans was performed 15 min later.

[3] = system: NIS; experiment: NIS expression in mouse thyroid glands (immunohistochemistry, Western blot); assay type: in vivo; details: four days after intravenous injection
Protocol: (§6) FIG. 6: Analysis of NIS expression in the thyroid and salivary glands in response to Iomeron. Saline buffer (A, C) or Iomeron (B, D) were administered intravenously. Four days later, animals were culled and NIS expression in the thyroid glands (A, B) and salivary glands (C, D) were analyzed by immunohistochemistry (n=3 per group). Thyroids and salivary glands were also processed for Western blot analysis of NIS and β-actin expression (n=2 per group).
(§7) Thyroid membrane proteins were subjected to SDS-PAGE electrophoresis as previously described (Cambien et al., 2014). Western blotting was performed with antibody 25 anti-mouse NIS, an affinity-purified rabbit immunoreactive serum fraction, or with an anti-β-actin antibody (Sigma).
(§8) After culling the animals, thyroids and salivary glands were dissected, paraffin embedded, and cut into 4-μm-thick sections. The paraffin was then removed and the sections were rehydrated and subjected to an antigen retrieval treatment with a solution of citrate buffer, pH 6, using an automate (PT Link, Dako). Immunostaining was performed following a standard protocol (Dako EnVision™ FLEX using an automated immunostainer, Autostainer, Dako). Endogenous peroxide was blocked using the EnVision™ FLEX Peroxidase-Blocking Reagent. […]

[4] = system: mouse salivary glands; experiment: 99m-pertechnetate uptake by the mouse salivary glands (microSPECT/CT); assay type: in vivo
Protocol: (§9) FIG. 3: Effect of Iomeron on the uptake of ^99m-pertechnetate by the mouse thyroid and salivary glands. SPECT/CT imaging of mice administered 20 MBq ^99m-pertechnetate was performed (day 0). At the end of the scan, Iomeron was administered intravenously. One, four, eight, twelve and eighteen days later, animals were injected with 20 MBq ^99m-pertechnetate and new scans were performed. The data presented represent the percentage of radiotracer injected taken up by the thyroid (A) and salivary glands (B). (n=3 per condition). ***p<0.001; n.s: non statistically significant.
FIG. 5: Effect of KI on the uptake of ^99m-pertechnetate by the mouse thyroid and salivary glands. […]
^99mTc pertechnetate (^99mTcO4^−) was obtained from a freshly eluted ^99Mo/^99mTc generator. […] Thyroid and salivary gland tracer uptake was measured at different times using a dedicated microSPECT/CT scanner (eXplore speCZT CT120, GE) under gas anesthesia (air and 1-2% isoflurane) in an air-warmed imaging chamber (Minerve, Esternay, France) to maintain body temperature at 37° C. […] Reconstructed images were analyzed and quantified using AMIDE software (Loening and Gambhir, 2003). Tracer activities in the various relevant organs were calculated. […] Uptakes were expressed as percentages of the injected dose (% ID) after decay correction (Cambien et al., 2014).

[5] = system: NIS; experiment: NIS expression in mouse salivary glands (immunohistochemistry, Western blot); assay type: in vivo; details: four days after intravenous injection
Protocol: as §6, §7, §8

[6] = system: PCCL3 cells; experiment: 125I iodide uptake in PCCL3 cells; assay type: cell-based, rat; details: one hour incubation with 125I, Iomeron 100 μL corresponding to 70 mg of iomeprol
Protocol: as §1, §2, §3

[7] = system: mouse thyroid; experiment: 99m-pertechnetate uptake by the mouse thyroid (microSPECT/CT); assay type: in vivo
Protocol: as §9
FIG. 5: Effect of KI on the uptake of ^99m-pertechnetate by the mouse thyroid and salivary glands. SPECT/CT imaging of mice administered 20 MBq ^99m-pertechnetate was performed (day 0). Animals were injected intraperitoneally with KI (9 mg in 180 μL) and scanned 30 minutes later. Twenty-four hours later, animals were injected with 20 MBq ^99m-pertechnetate and new scans were performed. The data presented represent the percentage of radiotracer injected taken up by the thyroid (A) and salivary glands (B). (n=3 per condition). *p<0.05; ***p<0.001.
FIG. 7: Evaluation of the effect of different modes of administration of Iomeron on the uptake of ^99m-pertechnetate by the thyroid. SPECT/CT imaging of mice administered 20 MBq ^99m-pertechnetate was performed (day 0). At the end of the scan, intravenous, sublingual, enteral, and intraperitoneal administrations of Iomeron were performed. Four days later, animals were injected with 20 MBq ^99m-pertechnetate and new scans were performed. The data presented represent the percentage of radiotracer injected taken up by the thyroid (A) and salivary glands (B). (n=2 per condition). ***p<0.001.
FIG. 9: Effect of Telebrix, Optiray and Omnipaque on the uptake of ^99mpertechnetate by the mouse thyroid. SPECT/CT imaging of mice administered 20 MBq ^99mpertechnetate was performed (day 0). At the end of the scan, mice received a sublingual administration […] of Telebrix or Optiray, or Omnipaque. Two days later, animals were injected with 20 MBq ^99mpertechnetate and new scans were performed. The data presented represent the percentage of radiotracer injected taken up by the thyroid. (n=3 per condition). ***p<0.001; n.s: non statistically significant. % IA: percentage of the injected activity.
Eight-week-old female C57B/6J mice were obtained from Janvier (Le Genest Saint Isle, France). Animal housing and procedures were conducted according to French Agriculture Ministry guidelines and were approved by the local ethics committee (Ciepal NCE/2014-211).
Intravenous and intraperitoneal administration was performed by injecting 100 μL Iomeron diluted 50/50 (vol/vol) with phosphate-buffered saline (corresponding to 18 mg iomeprol). Enteral administration was performed by gavage of 100 μL Iomeron diluted 50/50 (vol/vol) with phosphate-buffered saline (corresponding to 18 mg iomeprol). Sublingual administration was performed on anesthetized mice by five sublingual depositions of 5 μL Iomeron, with a delay of 10 minutes between two administrations. This procedure led to the administration of […] iomeprol.
^99mTc pertechnetate (^99mTcO4^−) was obtained from a freshly eluted ^99Mo/^99mTc generator. Animals were administered intraperitoneally with activities of 20 MBq ^99mTcO4^−. Thyroid and salivary gland tracer uptake was measured at different times using a dedicated microSPECT/CT scanner (eXplore speCZT CT120, GE) under gas anesthesia (air and 1-2% isoflurane) in an air-warmed imaging chamber (Minerve, Esternay, France) to maintain body temperature at 37° C. The SPECT scanner uses a stationary full ring of CZT detectors and a rotating 7-pinhole (1 mm opening) collimator. A total of 350 projections were acquired over 360° in 8 minutes. Images were reconstructed using the manufacturer's 3D-OSEM algorithm (5 subsets and 11 iterations), which incorporates the system's collimator-detector response function and scatter correction. […]

[8] = system: human thyroid; experiment: 99mTcO4- scintigraphy of the human thyroid; assay type: in vivo; details: patient, intravenous injection two weeks before scintigraphy
Protocol: as §4, §5

[9] = system: thyroid; details: KI tablets, prevention of 131-I entry into the thyroid; cited from earlier work
[10] = after intravenous administration, scans on days 1, 4, 8, 12, 18

CN(C(=O)CO)c1c(I)c(C(=O)NCC(O)CO)c(I)c(C(=O)NCC(O)CO)c1I (stereo not drawn) [Iomeron, iomeprol]
iodide uptake (125I) [1]: failed to affect this uptake significantly | pertechnetate uptake in the salivary glands [2]: radiotracer uptake in the salivary glands | NIS expression in thyroids, immunohistological analysis [3]: hardly detectable | NIS expression in the thyroid glands, western blot ([3]; compared with controls): dramatic decrease | uptake by the salivary glands ([4]; after intravenous administration, same animals): failed to affect iodide uptake | uptake to the salivary glands ([4]; intravenous, sublingual, enteral or intraperitoneal administration, four days later): not affected in any condition | NIS expression in ductal cells of the salivary glands, immunohistological analysis [5]: detectable | NIS expression in the salivary glands, western blot ([5]; compared with controls): no significant difference | iodide uptake (125I) [6]: failed to affect this uptake significantly | radiotracer uptake by the thyroid ([7]; 24 hours after intravenous administration): dramatic reduction | duration of low thyroid uptake capacity [7, 10]: remained low for eight days | recovery of thyroid uptake capacity [7, 10]: recovery was observed from day 12 | radiotracer uptake by the thyroid ([7]; enteral administration (gavage, 18 mg iomeprol), four days later): neither enteral nor intraperitoneal administration affected radiotracer uptake | radiotracer uptake by the thyroid ([7]; intraperitoneal administration (18 mg iomeprol), four days later): neither enteral nor intraperitoneal administration affected radiotracer uptake | radiotracer uptake by the thyroid ([7]; intravenous administration (18 mg iomeprol), four days later): marked reduction | radiotracer uptake by the thyroid ([7]; sublingual administration (9 mg iomeprol), four days later): marked reduction | pertechnetate uptake in the thyroid [8]: lack of fixation in the thyroid region

[I-].[K+] [KI, potassium iodide]
ability of the thyroid to take up pertechnetate ([7]; 30 minutes after intraperitoneal injection (9 mg in 180 μL)): reduced | ability of the thyroid to take up pertechnetate ([7]; 24 hours after intraperitoneal injection (9 mg in 180 μL)): recovered | duration of the protective effect [9]: 24 h

[I-].[Na+] [NaI]
iodide uptake (125I) [1]: inhibited iodide uptake | iodide uptake (125I) [6]: inhibited iodide uptake

[O-][Cl+3]([O-])([O-])O [perchlorate]
iodide uptake (125I) [1]: inhibited iodide uptake | iodide uptake (125I) [6]: inhibited iodide uptake
